For 2 molecules, Kd and activity results are on record in publication PMC10997663, “Mechano-sensitivity of β2-adrenoceptors enhances constitutive activation of cAMP generation that is inhibited by inverse agonists” (Communications Biology, 2024).

Experiment [1] concerns the target T1, β2-adrenoceptor (β2AR) (Homo sapiens, UniProt P07550).
T1 construct: gene ADRB2; HiBiT-β2AR (N-terminal HiBiT tag), complemented with LgBiT
The experiment in a line: NanoBRET saturation binding in live HEK293G cells. The class given is cell-based. Background: In BRET a luciferase serves as donor, and the signal depends on an acceptor being close.

Experiment [2] has as its system β2-adrenoceptor (β2AR). The experiment in a line: cells. Details: species or system HEK293G overexpressing TS-SNAP-β2AR; GloSensor cAMP luminescence; inverse agonist inhibition of the peak basal (mechanically stimulated) response. The conditions noted are these: HEK293G, read-out: % of control remaining. The method, then:
(§1) Four inverse agonists were evaluated as inhibitors of the basal GloSensor^TM response in HEK293G cells overexpressing the TS-SNAP-β2AR (Fig. 3). […] Each inverse agonist was added immediately following an initial luminescence read at time zero. The plate therefore entered the PheraStar at time zero, was then removed for the addition of inverse agonist or HBSS and measurements were made again at t = 1 min and every minute thereafter. Values are mean ± SEM of five independent experiments.

The subject of experiment [3] is β2-adrenoceptor (β2AR). The experiment in a line: cells. The arrangement: species or system HEK293G overexpressing TS-SNAP-β2AR; GloSensor cAMP luminescence; inverse agonist inhibition of the peak basal (mechanically stimulated) response. The conditions noted are these: HEK293G, read-out: % of control remaining. The protocol: as §1
The source holds these as a separate data set.

Like-named read-outs stand apart in the source and are kept apart here.

In general, Kd refers to the equilibrium constant for the complex coming apart. Read a low Kd as tighter binding.

T1 sequence (P07550 whole entry): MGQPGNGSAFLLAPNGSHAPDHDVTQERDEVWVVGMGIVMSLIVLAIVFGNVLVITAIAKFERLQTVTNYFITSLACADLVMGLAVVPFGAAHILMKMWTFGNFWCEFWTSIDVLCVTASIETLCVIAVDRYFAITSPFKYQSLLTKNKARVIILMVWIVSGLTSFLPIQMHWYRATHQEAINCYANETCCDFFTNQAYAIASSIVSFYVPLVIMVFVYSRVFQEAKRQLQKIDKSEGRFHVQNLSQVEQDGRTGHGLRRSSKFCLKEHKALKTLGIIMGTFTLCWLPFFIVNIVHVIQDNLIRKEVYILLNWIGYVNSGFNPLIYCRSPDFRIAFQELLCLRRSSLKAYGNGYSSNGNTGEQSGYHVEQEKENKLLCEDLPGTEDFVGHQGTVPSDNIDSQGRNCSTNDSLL

In the case of `Cc1ccc(OCC(O)C(C)NCCNC(=O)CCNC(=O)CCNC(=O)CCCCCNC(=O)COc2ccc(C=CC3=[N+]4C(=Cc5ccc(-c6cccs6)n5[B-]4(F)F)C=C3)cc2)c2c1CCC2` (stereo not drawn) [ICI-118551-βAla-βAla-BODIPY-X-630/650], the Kd in experiment [1] was 0.0326 ± 0.00742 µM.
As to `COc1ccccc1OCCNCC(O)COc1cccc2[nH]c3ccccc3c12` (stereo not drawn) [carvedilol], the activity at 10 µM amounted to 41.1 ± 4.32% in experiment [2] and 54 ± 10.6% in experiment [3].
